This note sets out measurements from patent publication US20150166520A1, “AMIDO-SUBSTITUTED PYRIMIDINONE DERIVATIVES USEFUL FOR THE TREATMENT OF HIV INFECTION” (MERCK SHARP & DOHME CORP., priority 2012, published 2015).

Series [1] can be described thus: Dog pharmacokinetic study, colonic dose. The class given is in vivo, Male Beagle Dogs. Details: AUC(0-t) / Tmax: dose or concentration left out as unconfirmed. The note with it: for colonic absorption versus metabolite Compound 1a: Beagle dogs, colonic dosing, statement in words; for Cmax / AUC(0-t) / Tmax: male, dog, plasma, fasted Beagle dogs, Colonic, compound measured = prodrug dosed; for Cmax / AUC(0-t): mean ± SE; for AUC(0-t): read-out: AUC0-24 hr; for Tmax: median. Here is the method:
(§1) Six Male Beagle Dogs (Marshall Farms) weighing 9.0-11.6 kg were used for the studies. Studies were conducted under a protocol approved by the WP-IACUC (Animal Procedure Statement #09068544080285). […] Dosing was followed by 5 mL water rinse via oral gavage for oral dosing or with a post-dose water flush of the catheter for colonic dosing. Water was restricted for 1 hour post dose. Food was returned at 4 hours after dosing. Blood (1-mL) was drawn at pre-dose, 0.25, 0.5, 1, 2, 4, 6, 8 and 24 hours post-dosing. The plasma was separated by centrifugation (10 minutes at 2500 g) and kept frozen at −70° C. until analysis by LC-MS/MS.

Series [2] in a line: Oral pharmacokinetics in Wistar-Hanover rats. The following applies: plasma, rat; for bioavailability: oral, prodrug, from dose-adjusted IV and P.O. AUC ratios; for Tmax / AUC / Cmax / nAUC: oral gavage, prodrug measured; for AUC: read-out: AUC0-x hr. The class given is in vivo, male Wistar-Hanover rats. Here is the method:
(§2) Selected compounds of the present invention were administered in suitable vehicles to male Wistar-Hanover rats. Intravenous (IV) administration to rats was conducted via cannulas implanted in the jugular vein. For oral administration, test compounds were administered by gavage. Blood samples were serially collected following dose administration for up to 24 hr and plasma was separated by centrifugation. The concentration of test compound in rat plasma were determined by a LC-MS/MS assay following a protein precipitation step and addition of an appropriate internal standard. Quantification was done by determining peak area-ratios of the test compound and compound 1a (the metabolite of each of the test compounds) to the internal standard. Pharmacokinetic parameters were obtained using non-compartmental methods (Watson®). The area under the plasma concentration-time curve (AUC0-t) was calculated from the first time point (0 min) up to the last time point with measurable test compound concentration using the linear trapezoidal or linear/log-linear trapezoidal rule. The IV plasma clearance was calculated by dividing the dose by AUC0-inf. The terminal half-life of elimination was determined by unweighted linear regression analysis of the log-transformed data. The time points for determination of half-life were selected by visual inspection of the data. The volume of distribution at steady state (Vdss) was obtained from the product of plasma clearance and mean residence time (determined by dividing the area under the first moment curve by the area under the curve). The maximum plasma concentration (Cmax) and the time at which maximum concentration occurred (Tmax) were obtained by inspection of the plasma concentration-time data. Absolute oral bioavailability was determined from dose-adjusted IV and P.O. AUC ratios.

The subject of series [3] is cryopreserved hepatocytes from human. The series can be described thus: Metabolism of compounds in hepatocyte suspensions (prodrug hydrolysis), human. The class given is in vitro ADME. The following applies: prodrug 1 μM, human hepatocytes 1×10^6 cells/mL, 37° C. Here is the method:
(§3) Selected compounds of the present invention (1 μM) were incubated with suspensions of cryopreserved hepatocytes from rat, dog and human subjects at a cell density of 1×10^6 cells/mL. The samples were incubated for 0, 5, 15, 30, 60 and 90 minutes in a 95% humidified incubator at 37° C. with 5% CO2. At each time point, the samples were quenched with acetonitrile containing an appropriate internal standard. The samples were then vortex-mixed and centrifuged at ˜2,900×g for 30 minutes. The supernatants were transferred to clean plates and analyzed using LC-MS/MS. Following quantification of prodrug and parent in the samples, half lives of conversion (t1/2) were determined from the rates of prodrug degradation according to first-order kinetics. Conversion to active metabolite (compound 1a) was confirmed by following the formation of compound 1a.

Series [4] concerns cryopreserved hepatocytes from rat. The series can be described thus: Metabolism of compounds in hepatocyte suspensions (prodrug hydrolysis), rat. Type of series: in vitro ADME. The note with it: prodrug 1 μM, rat hepatocytes 1×10^6 cells/mL, 37° C. As for the experimental part: as §3
Series [5] is described as follows: Intravenous pharmacokinetics in Wistar-Hanover rats. The class given is in vivo, male Wistar-Hanover rats. The following applies: rat, plasma; for half-life / AUC / Vd / clearance: male, Wistar-Hanover; for half-life / Vd / clearance: prodrug; for AUC / nAUC0-∞: prodrug measured; for AUC: read-out: AUC0-x; for Vd: read-out: Vdss; for clearance: read-out: Clp. As for the experimental part:
as §2

Series [6] deals with cryopreserved hepatocytes from dog. The series can be described thus: Metabolism of compounds in hepatocyte suspensions (prodrug hydrolysis), dog. Type of series: in vitro ADME. The note with it: prodrug 1 μM, dog hepatocytes 1×10^6 cells/mL, 37° C. Here is the method: as §3
A short description of series [7]: Dog pharmacokinetic study, oral dose. The class given is in vivo. Also on record: AUC(0-t) / Tmax: dose or concentration left out as unconfirmed. The following applies: male, plasma, fasted Beagle dogs, compound measured = prodrug dosed; for Cmax / AUC(0-t): mean ± SE; for AUC(0-t): read-out: AUC0-24 hr; for Tmax: median. Here is the method: as §1
The mark [8] stands for this setting: male, Wistar-Hanover, read-out: Cmax.

For `CCOC(=O)OC(C)Oc1c(C(=O)NCc2ccc(F)cc2)nc(C(C)(C)NC(=O)c2nnc(C)o2)n(C)c1=O` (stereo not shown) [Compound 1], in series [1], the “colonic absorption versus metabolite Compound 1a” value was “significant increase in colonic absorption”, the Cmax was determined as 91 ± 25 nM, the AUC(0-t) came out at 0.083 ± 0.034 µM·h and the Tmax stood at 18 min. Also, in series [2] (male, Wistar-Hanover), the bioavailability was 3%, the Tmax was determined as 15 min and the AUC was 0.002 µM·h. The Cmax in series [2] (setting [8]) came to 6 nM. Moreover, the nAUC in series [2] was 0.0004 µM·h. Moreover, the “Remaining at 90 min, Human” value in series [3] is 19.32%. Besides, the “Remaining at 90 min, Rat” value in series [4] stood at 30.30%. Moreover, in series [5], the half-life was 9 min, the AUC was 0.012 µM·h and the “nAUC0-∞” value was 0.012 µM·h. In series [6], the “Remaining at 90 min, Dog” value worked out at 15.94%. Besides, in series [7], the Cmax was determined as 212 ± 32 nM, the AUC(0-t) came out at 0.146 ± 0.033 µM·h and the Tmax was found to be 18 min.

In the case of `Cc1nnc(C(=O)NC(C)(C)c2nc(C(=O)NCc3ccc(F)cc3)c(OC(C)OC(=O)OC(C)C)c(=O)n2C)o1` (stereo not shown) [Compound 2], in series [2] (male, Wistar-Hanover), the bioavailability worked out at 6.6%, the Tmax worked out at 67.8 min and the AUC turned out to be 0.039 µM·h. The Cmax in series [2] (setting [8]) was found to be 19 nM. In addition, the nAUC in series [2] was determined as 0.008 µM·h. In series [5], the Vd is 2.17 L/kg, the half-life was 10.2 min, the AUC is 0.119 µM·h and the clearance stood at 244 mL/min/kg. In series [5], the “nAUC0-∞” value is 0.119 µM·h.

`CCCCOC(=O)OC(C)Oc1c(C(=O)NCc2ccc(F)cc2)nc(C(C)(C)NC(=O)c2nnc(C)o2)n(C)c1=O` (stereo not shown) [Compound 7]: in series [3], the “Remaining at 90 min, Human” value came to 2.12%. Moreover, the “Remaining at 90 min, Rat” value in series [4] amounted to 2.72%. For the same compound, the “Remaining at 90 min, Dog” value in series [6] is on record as 3.31%.

Regarding `Cc1nnc(C(=O)NC(C)(C)c2nc(C(=O)NCc3ccc(F)cc3)c(OC(OC(=O)OC(C)C)C(C)C)c(=O)n2C)o1` (stereo not shown) [Compound 12], in series [3], the “Remaining at 90 min, Human” value is listed as 14.81%. Moreover, in series [4], the “Remaining at 90 min, Rat” value was 38.75%. For the same compound, the “Remaining at 90 min, Dog” value in series [6] came out at 5.97%.

For `CCOC(=O)OC(CC)Oc1c(C(=O)NCc2ccc(F)cc2)nc(C(C)(C)NC(=O)c2nnc(C)o2)n(C)c1=O` (stereo not shown) [Compound 15], in series [2] (male, Wistar-Hanover), the bioavailability worked out at 7%, the time to peak (Tmax) was 45 min and the AUC came to 0.028 µM·h. For the same compound, the Cmax in series [2] (setting [8]) was determined as 21 nM. Also, in series [2], the nAUC stood at 0.006 µM·h. In series [3], the “Remaining at 90 min, Human” value was determined as 14.00%. The “Remaining at 90 min, Rat” value in series [4] stood at 6.20%. Moreover, in series [5], the Vd is 3.48 L/kg, the half-life was 8.4 min, the AUC stood at 0.085 µM·h and the clearance was 388 mL/min/kg. The “nAUC0-∞” value in series [5] amounted to 0.085 µM·h. Moreover, the “Remaining at 90 min, Dog” value in series [6] is given as 8.90%.

Turning to `Cc1nnc(C(=O)NC(C)(C)c2nc(C(=O)NCc3ccc(F)cc3)c(OCOC(=O)OC(C)C)c(=O)n2C)o1` [Compound 20], the “Remaining at 90 min, Human” value in series [3] was determined as 1.80%. In addition, the “Remaining at 90 min, Rat” value in series [4] was 0.60%. Moreover, the “Remaining at 90 min, Dog” value in series [6] is on record as 1.70%.

In the case of `Cc1nnc(C(=O)NC(C)(C)c2nc(C(=O)NCc3ccc(F)cc3)c(OCOC(=O)C(C)(C)C)c(=O)n2C)o1` [Compound 22], in series [1], the “colonic absorption versus metabolite Compound 1a” value was “significant increase in colonic absorption”, the Cmax is 10 ± 3 nM, the AUC(0-t) amounted to 0.014 ± 0.003 µM·h and the Tmax came out at 15 min. Also, the Cmax result in series [2] is recorded as “BLQ”. In addition, in series [3], the “Remaining at 90 min, Human” value was found to be 4.27%. Moreover, the “Remaining at 90 min, Rat” value in series [4] is given as 3.58%. For the same compound, in series [5], the half-life is 2.4 min, the AUC came out at 0.012 µM·h and the “nAUC0-∞” value was found to be 0.012 µM·h. Moreover, in series [6], the “Remaining at 90 min, Dog” value worked out at 3.21%. In series [7], the Cmax came out at 8 ± 2 nM, the AUC(0-t) was 0.006 ± 0.002 µM·h and the Tmax is 30 min.

For the compound `CC(=O)OC(Oc1c(C(=O)NCc2ccc(F)cc2)nc(C(C)(C)NC(=O)c2nnc(C)o2)n(C)c1=O)C(C)C` (stereo not shown) [Compound 23], in series [3], the “Remaining at 90 min, Human” value was 28.06%. Besides, the “Remaining at 90 min, Rat” value in series [4] came out at 50.65%. Moreover, the “Remaining at 90 min, Dog” value in series [6] amounted to 8.14%.

The term Cmax denotes the highest concentration seen after dosing. Broadly, the Tmax is the time from dosing to the highest level. A word on the bioavailability: it is the share of a dose that reaches the circulation, judged against a reference dose that is usually intravenous. For orientation: half-life means the time in which the quantity being followed falls by half.
